Assay results taken from patent US20250326748A1, “COMPOUNDS AND METHODS FOR MODULATING SPLICING” (REMIX THERAPEUTICS INC., priority 2022, published 2025).
Counter-ions that a name gives are not always drawn. Like-named read-outs stand apart in the source and are kept apart here.

How the values were obtained:
Target C = assay: HiBiT protein abundance assay, Target C (K562 HiBiT knock-in); type: cell-based, human; conditions: HiBiT knock-in cells, 24 hours
Outline: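 K562 HiBiT knock-in cells (10000/well) in IMDM + 1% FBS were treated for 24 h at 37° C. with a 10-point 3-fold dilution series (top 10 μM final), with DMSO ≤0.25%. Unmodified K562 served as baseline. HiBiT lytic luminescence was normalized to controls, and IC50 was interpolated at 50% from a four-parameter fit.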

MYB mRNA = assay: Splicing RT-qPCR assay, MYB canonical (CJ) and alternative (AJ) junction mRNA; type: cell-based, human; conditions: Homo sapiens; for IC50: canonical junction mRNA; for AC50: alternative junction mRNA, read-out: MYB AJ (AC50, increase in AJ mRNA)
Outline: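 Splicing switches are scored by TaqMan qPCR on cell lysate, comparing abundance of the normal exon junction with the new junction formed when the alternative exon is included. A673 results are referenced to PPIA and K562 results to GAPDH or GUSB. Compound exposure lasts 24 h.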

K562 cells = assay: Cell viability, Cell Titer Glo 2.0 assay, K562; conditions: 72 hours
[1] = qPCR panel, read-out: MYB CJ (decrease in CJ mRNA levels, IC50)
[2] = RT-qPCR, A673 or K562 cells, 24 hours treatment
[3] = RT-qPCR, A673 or K562 cells, 24 hours treatment, read-out: MYB CJ (IC50, decrease in CJ mRNA)

SMILES	IC50 (Target C) [nM]	IC50 (MYB mRNA; [1]) [nM]	IC50 (MYB mRNA; [3]) [nM]	AC50 (MYB mRNA; [2]) [nM]	Effect on Cell Viability, K562 (K562 cells)
CN[C@@H]1CCN(c2cnc3nc(-c4cc5cn(C)nc5c(C)c4O)cc(Cl)c3c2)C1 [Compound 286, 5-{4-chloro-6-[(3R)-3-(methylamino)pyrrolidin-1-yl]-1,8-naphthyridin-2-yl}-2,7-dimethylindazol-6-ol hydrochloride]	< 100	< 100	< 100	< 100	A (<100 nM)
Cc1c(O)c(-c2ccc3cc(N4CCNCC4)cnc3n2)cc2cn(C)nc12 [Compound 137, 2,7-dimethyl-5-[6-(piperazin-1-yl)-1,8-naphthyridin-2-yl]indazol-6-ol]	100 to 1000	< 100	< 100	< 100	B (100-1000 nM)
Cn1cc2cc(-c3cc(Cl)c4cc(N5CCNC6(CC6)C5)cnc4n3)c(O)c(F)c2n1 [Compound 274]	100 to 1000	< 100	< 100	< 100	B (100-1000 nM)
Cn1cc2cc(-c3ccc4cc(N5CC[C@@H](NCC6CC6)C5)cnc4n3)c(O)cc2n1 [Compound 313]	100 to 1000	100 to 1000	100 to 1000	< 100	B (100-1000 nM)
CCN[C@H]1CCN(c2cnc3nc(-c4cc5cn(C)nc5cc4O)cc(Cl)c3c2)C1 [Compound 318]	100 to 1000	< 100	< 100	< 100	A (<100 nM)
Cc1c(O)c(-c2cc(Cl)c3cc(N(C)[C@@H]4CCNC4)cnc3n2)cc2cn(C)nc12.Cl [Compound 293]	1000 to 10000	100 to 1000	100 to 1000	100 to 1000	B (100-1000 nM)
CN[C@@H]1CCN(c2cnc3nc(-c4cc5cn(C)nc5c(C)c4O)ncc3c2)C1 [Compound 107, 2,7-dimethyl-5-{6-[(3R)-3-(methylamino)pyrrolidin-1-yl]pyrido[2,3-d]pyrimidin-2-yl}indazol-6-ol hydrochloride]	< 100	< 100	< 100	< 100	A (<100 nM)
CN[C@@H]1CN(c2cnc3nc(-c4cc5cn(C)nc5c(C)c4O)ccc3c2)C[C@H]1F (single isomer, unassigned) [Compound 130]	100 to 1000	< 100	< 100	< 100	B (100-1000 nM)
Cn1cc2cc(-c3ccc4cc(N5CC[C@H](NCC6CC6)C5)cnc4n3)c(O)c(F)c2n1 [Compound 136, 5-{6-[(3S)-3-[(cyclopropylmethyl)amino]326pyrrolidine-1-yl]-1,8-naphthyridin-2-yl}-7-fluoro-2-methylindazol-6-ol]	100 to 1000	100 to 1000	100 to 1000	< 100	A (<100 nM)
CN1CCC[C@@H]2CN(c3cnc4nc(-c5cc6cn(C)nc6c(F)c5O)cc(Cl)c4c3)C[C@@H]21 [Compound 303]	1000 to 10000	100 to 1000	100 to 1000	100 to 1000	B (100-1000 nM)
CCN[C@@H]1CCN(c2cnc3nc(-c4cc5cn(C)nc5cc4O)ccc3c2)C1 [Compound 310, 5-{6-[(3R)-3-(ethylamino)468pyrrolidine-1-yl]-1,8-naphthyridin-2-yl}-2-methylindazol-6-ol hydrochloride]	100 to 1000	< 100	< 100	< 100	B (100-1000 nM)
Cn1cc2cc(-c3ccc4cc(N5CCC(NC(C)(C)C)C5)cnc4n3)c(O)cc2n1 (stereo not drawn) [Compound 134, 5-{6-[3-(tert-butylamino)pyrrolidin-1-yl]-1,8-naphthyridin-2-yl}-2-methylindazol-6-ol hydrochloride]	100 to 1000	100 to 1000	100 to 1000	100 to 1000	B (100-1000 nM)
CN[C@H]1CCN(c2cnc3nc(-c4cc5cn(C)nc5c(F)c4O)cc(Cl)c3c2)C1 [Compound 272]	< 100	< 100	< 100	< 100	A (<100 nM)
CN[C@@H]1CCN(c2cnc3nc(-c4cc5cn(C)nc5c(C)c4O)ccc3c2)C1 [Compound 112]	100 to 1000	< 100	< 100	< 100	B (100-1000 nM)

Now from value to molecule, other results behind:

IC50 (Target C) [nM]	IC50 (MYB mRNA; [1]) [nM]	IC50 (MYB mRNA; [3]) [nM]	SMILES	AC50 (MYB mRNA; [2]) [nM]	Effect on Cell Viability, K562 (K562 cells)
1000 to 10000	100 to 1000	100 to 1000	Cc1cn2cc(-c3ccc4cc(N5C[C@@H](C)N[C@@H](C)C5)cnc4n3)cc(F)c2n1 [Compound 350]	1000 to 10000	C (1000-9999 nM)
1000 to 10000	100 to 1000	100 to 1000	Cc1cn2nc(-c3cc(Cl)c4cc(N5C[C@@H](C)N[C@@H](C)C5)cnc4n3)cc(C)c2n1 [Compound 335, 4-chloro-2-{2,8-dimethylimidazo[1,2-b]478pyridazine-6-yl}-6-[(3R,5S)-3,5-dimethylpiperazin-1-yl]-1,8-naphthyridine]	100 to 1000	B (100-1000 nM)
100 to 1000	< 100	< 100	Cc1cn2nc(-c3ccc4c(Cl)c(N5C[C@H](C)N[C@@H](C)C5)cnc4n3)cc(C)c2n1 [Compound 393, 5-chloro-2-{2,8-dimethylimidazo[1,2-b]pyridazin-6-yl}-6-[(3S,5S)-3,5-dimethylpiperazin-1-yl]-1,8-naphthyridine]	< 100	B (100-1000 nM)
100 to 1000	< 100	< 100	CN[C@@H]1CN(c2cnc3nc(-c4cc5cn(C)nc5c(C)c4O)ccc3c2)C[C@@H]1C [Compound 128]	100 to 1000	A (<100 nM)
100 to 1000	< 100	< 100	CN[C@H]1CN(c2cnc3nc(-c4cc5cn(C)nc5c(C)c4O)ccc3c2)C[C@@H]1C [Compound 127, 2,7-dimethyl-5-{6-[(3S,4R)-3-methyl-4-(methylamino)384pyrrolidine-1-yl]-1,8-naphthyridin-2-yl}indazol-6-ol]	100 to 1000	A (<100 nM)
100 to 1000	< 100	< 100	Cc1cn2nc(-c3cc(Cl)c4cc(N5C[C@H](C)N[C@@H](C)C5)cnc4n3)cc(C)c2n1 [Compound 336]	< 100	B (100-1000 nM)
1000 to 10000	100 to 1000	100 to 1000	CN[C@@H]1CN(c2cnc3nc(-c4cc5cn(C)nc5c(C)c4O)ccc3c2)C[C@H]1C [Compound 126, 2,7-dimethyl-5-{6-[(3R,4S)-3-methyl-4-(methylamino)382pyrrolidine-1-yl]-1,8-naphthyridin-2-yl}indazol-6-ol]	100 to 1000	B (100-1000 nM)
100 to 1000	< 100	< 100	CN[C@H]1CN(c2cnc3nc(-c4cc5cn(C)nc5c(C)c4O)ccc3c2)C[C@H]1C [Compound 125, 2,7-dimethyl-5-{6-[(3R,4R)-3-methyl-4-(methylamino)379pyrrolidine-1-yl]-1,8-naphthyridin-2-yl}indazol-6-ol]	< 100	A (<100 nM)
100 to 1000	< 100	< 100	C[C@@H]1CN(c2cnc3nc(-c4cc5cn(C)nc5c(F)c4O)cc(Cl)c3c2)C[C@H](C)N1 [Compound 279]	< 100	A (<100 nM)
> 10000	100 to 1000	100 to 1000	C[C@@H]1CN(c2cnc3nc(-c4cc(C#N)c5nn(C)cc5c4)cc(Cl)c3c2)C[C@H](C)N1 [Compound 325, 5-(4-chloro-6-((3R,5S)-3,5-dimethylpiperazin-1-yl)-1,8-naphthyridin-2-yl)-2-methyl-2H-indazole-7-carbonitrile 2,2,2-trifluoroacetate]	1000 to 10000	C (1000-9999 nM)
100 to 1000	< 100	< 100	Cc1c(O)c(-c2cc(Cl)c3cc(N4C[C@@H](C)N[C@@H](C)C4)cnc3n2)cc2cn(C)nc12 [Compound 149]	< 100	B (100-1000 nM)
1000 to 10000	100 to 1000	100 to 1000	Cc1cn2cc(-c3cc(Cl)c4cc(N5CCNCC5)cnc4n3)cc(F)c2n1 [Compound 153, 4-chloro-2-{8-fluoro-2-methylimidazo[1,2-a]pyridin-6-yl}-6-(piperazin-1-yl)-1,8-naphthyridine]	< 100	B (100-1000 nM)
100 to 1000	< 100	< 100	C[C@@H]1CN(c2cnc3nc(-c4cc5cn(C)nc5c(F)c4O)cc(Cl)c3c2)C[C@@H](C)N1 [Compound 281]	< 100	A (<100 nM)
